Assay results reported in publication PMC9240639, “Williams-Beuren Syndrome Related Methyltransferase WBSCR27: From Structure to Possible Function” (Frontiers in Molecular Biosciences, 2022).

Biological target: T1, WBSCR27 (Mus musculus, UniProt Q8BGM4)
T1 construct: gene Mettl27; recombinant in E. coli, Ni-NTA, His-tag cleaved; isotope-labelled for NMR
T1 sequence (Q8BGM4 1-238): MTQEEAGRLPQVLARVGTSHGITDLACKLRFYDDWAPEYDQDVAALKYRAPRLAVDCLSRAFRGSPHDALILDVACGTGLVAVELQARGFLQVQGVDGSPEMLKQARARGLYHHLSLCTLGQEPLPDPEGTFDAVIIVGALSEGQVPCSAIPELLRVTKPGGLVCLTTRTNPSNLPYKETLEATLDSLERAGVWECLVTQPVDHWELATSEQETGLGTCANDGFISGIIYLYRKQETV
Assay: […],1H HSQC NMR of epimer mixture with protein
Format: binding
Settings: 308 K, labelled compound (methyl 13C), 0.05 mM each

Row | SMILES | 13C,1H HSQC NMR of epimer mixture with protein (equimolar mixture with (S,S)-SAM, seen bound only at the higher protein ratio) | 13C,1H HSQC NMR of epimer mixture with protein (equimolar mixture with (R,S)-SAM)
1 | C[S+](CC[C@H](N)C(=O)O)C[C@H]1O[C@@H](n2cnc3c(N)ncnc32)[C@H](O)[C@@H]1O (mixture of isomers) [(R,S)-SAM] | This indicates a significantly lower affinity of the (R,S)-epimer compared with the (S,S)-epimer | –
2 | C[S+](CC[C@H](N)C(=O)O)C[C@H]1O[C@@H](n2cnc3c(N)ncnc32)[C@H](O)[C@@H]1O (stereo partly drawn) [(S,S)-SAM] | – | WBSCR27 preferably binds the (S,S) stereoisomer
